Test results from PubChem BioAssay AID1963973 (Molecular Pharmacology Branch, DTP, NCI, 2024).

Tested on: 883617-216-R-J1-PDC tumor spheroids, viability
Assay: Anticancer human tumor 883617-216-R-J1-PDC patient-derived bladder carcinoma cell line growth inhibition [PI3K]
Settings: spheroids with HUVEC and MSC; for IC50: curve of first compound; for viability, T/C: stronger effect = lower value
Outline: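 Agents were dosed from a top concentration near clinical Cmax (otherwise 10 microM) in half-log decrements, alone or combined with PI3K inhibitors. The spheroids contain tumor cells plus endothelial (HUVEC) and MSC stroma; viability is measured.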
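Further: spheroids exposed to agents for 7 days before the viability read.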

Cn1cnc2c(F)c(Nc3ccc(Br)cc3Cl)c(C(=O)NOCCO)cc21 + CC(Nc1ncnc2nc[nH]c12)c1cc2cccc(Cl)c2c(=O)n1-c1ccccc1
IC50 (second compound 0.0316 µM): 43.1 nM
IC50 (second compound 0.1 µM): 39.3 nM
IC50 (second compound 0.316 µM): 32.7 nM
IC50 (second compound 1 µM): 22.7 nM
IC50 (second compound 3.16 µM): 9.6 nM
IC50 (second compound 10 µM): < 9.49 nM
viability, T/C (second compound 0.0316 µM, first compound 0.00949 µM): 64.3%
viability, T/C (second compound 0.0316 µM, first compound 0.03 µM): 56.1%
viability, T/C (second compound 0.0316 µM, first compound 0.0949 µM): 39.5%
viability, T/C (second compound 0.0316 µM, first compound 0.3 µM): 33.4%
viability, T/C (second compound 0.0316 µM, first compound 0.949 µM): 33.5%
viability, T/C (second compound 0.0316 µM, first compound 3 µM): 19.9%
viability, T/C (second compound 0.1 µM, first compound 0.00949 µM): 66.4%
viability, T/C (second compound 0.1 µM, first compound 0.03 µM): 55%
viability, T/C (second compound 0.1 µM, first compound 0.0949 µM): 35.6%
viability, T/C (second compound 0.1 µM, first compound 0.3 µM): 28.8%
viability, T/C (second compound 0.1 µM, first compound 0.949 µM): 30%
viability, T/C (second compound 0.1 µM, first compound 3 µM): 19.7%
viability, T/C (second compound 0.316 µM, first compound 0.00949 µM): 68.8%
viability, T/C (second compound 0.316 µM, first compound 0.03 µM): 51%
viability, T/C (second compound 0.316 µM, first compound 0.0949 µM): 37.8%
viability, T/C (second compound 0.316 µM, first compound 0.3 µM): 28.4%
viability, T/C (second compound 0.316 µM, first compound 0.949 µM): 23.9%
viability, T/C (second compound 0.316 µM, first compound 3 µM): 19.6%
viability, T/C (second compound 1 µM, first compound 0.00949 µM): 60%
viability, T/C (second compound 1 µM, first compound 0.03 µM): 44.9%
viability, T/C (second compound 1 µM, first compound 0.0949 µM): 39.4%
viability, T/C (second compound 1 µM, first compound 0.3 µM): 28%
viability, T/C (second compound 1 µM, first compound 0.949 µM): 22.4%
viability, T/C (second compound 1 µM, first compound 3 µM): 19%
viability, T/C (second compound 3.16 µM, first compound 0.00949 µM): 50.3%
viability, T/C (second compound 3.16 µM, first compound 0.03 µM): 37%
viability, T/C (second compound 3.16 µM, first compound 0.0949 µM): 23.2%
viability, T/C (second compound 3.16 µM, first compound 0.3 µM): 20.6%
viability, T/C (second compound 3.16 µM, first compound 0.949 µM): 19%
viability, T/C (second compound 3.16 µM, first compound 3 µM): 11%
viability, T/C (second compound 10 µM, first compound 0.00949 µM): 31.2%
viability, T/C (second compound 10 µM, first compound 0.03 µM): 24.7%
viability, T/C (second compound 10 µM, first compound 0.0949 µM): 17.8%
viability, T/C (second compound 10 µM, first compound 0.3 µM): 13.3%
viability, T/C (second compound 10 µM, first compound 0.949 µM): 12.4%
viability, T/C (second compound 10 µM, first compound 3 µM): 8.11%
